Values joined by “and” are separate entries in the source; they are usually repeats but may differ in a detail not shown here. Equal values may be shown once.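 Where inhibition never reached the appropriate level, the endpoint shown equals the highest concentration tested. Otherwise, values were interpolated linearly from a five-concentration, 48-hour dose response in 96-well plates. GI50 is the concentration that inhibits growth by half. TGI: concentration producing complete growth inhibition.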
Experiments:
Experiment in all cases: growth of human tumour cells (NCI), 48 h
XF 498 CNS = system: XF 498 CNS
DMS 273 small cell lung = system: DMS 273 small cell lung
SNB-78 CNS = system: SNB-78 CNS
DMS 114 small cell lung = system: DMS 114 small cell lung
KM20L2 colon = system: KM20L2 colon
HOP-18 NSCLC = system: HOP-18 NSCLC
RXF-631 renal = system: RXF-631 renal
MDA-N = system: MDA-N

| SMILES | TGI (XF 498 CNS) [µM] | TGI (DMS 273 small cell lung) [µM] | TGI (SNB-78 CNS) [µM] | TGI (DMS 114 small cell lung) [µM] | TGI (KM20L2 colon) [µM] | TGI (HOP-18 NSCLC) [µM] | TGI (MDA-N) | other results |
| --- | --- | --- | --- | --- | --- | --- | --- | --- |
| Brc1cc(C2OCCCO2)ccc1OCc1ccccc1 | > 100 | > 100 | > 100 | > 100 | – | – | – | – |
| COc1ccc(NC(=O)CC(=O)N/N=C(\C)c2cc3ccccc3oc2=O)cc1 | – | > 100 | – | > 100 | > 100 | > 100 | – | – |
| Cc1ccc(N2C(=O)/C(=C/c3ccc(N(CCC#N)CCC#N)cc3)N=C2COc2ccc(Cl)cc2Cl)cc1 | > 100 | – | > 100 | > 100 | > 100 | > 100 | – | TGI (RXF-631 renal): > 100 µM |
| CCCC(O)c1cn(-c2cccc(S(=O)(=O)O)c2)nn1 (stereo unspecified) | > 100 | > 100 | > 100 | > 100 | > 100 | > 100 | – | TGI (RXF-631 renal): > 100 µM |
| COc1ccc2c(c1O)[C@@]13CCCC=C1[C@@H](C2)[N+](C)(C)CC3 | – | – | – | – | – | – | > 100 µM | – |
| CCCCNS(=O)(=O)c1ccc(-c2ccc3c(c2)-c2ccc(S(=O)(=O)NCCCC)cc2S3(=O)=O)cc1 | 23.9 | > 100 | 33.4 | > 100 | 15.1 | 54 | – | – |
| C=C(C)[C@@H]1CCc2c(O)c(O)c(=O)cc(C)c2C1 | – | – | – | – | – | – | > 100 µM | – |
| O=C1C=CC(=O)c2c1ccc1c3ccccc3n(Cc3ccccc3)c21 | – | – | – | – | – | – | 54.4 µM | – |
| C=CCC12CC(=O)CCC1c1ccc(OC)cc1C2=O (stereo unspecified) | – | > 100 | > 100 | > 100 | > 100 | > 100 | – | – |
| COc1cc(C)cc(C(=O)/C=C/c2ccccc2)c1O | – | – | – | – | – | – | 55.2 µM | – |
| COC(=O)C(=O)C(C(=O)C(=O)Nc1ccccc1[N+](=O)[O-])c1nc2ccc([N+](=O)[O-])cc2[nH]c1=O (stereo unspecified) | – | > 100 | > 100 | > 100 | > 100 | > 100 | – | TGI (RXF-631 renal): > 100 µM |
| COc1cc(/C=C/C(=O)CC(=O)/C=C/c2cc(OC)c(O)c(OC)c2)cc(OC)c1O | – | – | – | – | – | – | 11.2 µM and > 100 µM | GI50 (MDA-N): 16.9 µM |
| Cc1ccccc1-n1c(=S)[nH]c2c(sc(=O)n2-c2ccccc2C)c1=O | – | > 100 | > 100 | > 100 | > 100 | > 100 | – | TGI (RXF-631 renal): > 100 µM |
| NC(N)=NC(N)=Nc1ccc(C(=O)O)cc1 | – | – | – | – | – | – | > 100 µM | – |
| O=C1OC(=O)C23CSCC12C1C=CC3O1 (stereo unspecified) | > 100 | > 100 | – | > 100 | > 100 | – | – | – |
| O=c1cc[nH]cc1-c1c[nH]ccc1=O | – | > 100 | > 100 | > 100 | – | > 100 | – | – |
| CC1=C(CO)C(=O)O[C@@H]([C@@H](C)[C@H]2CC[C@H]3[C@@H]4C[C@H]5O[C@]56[C@@H](O)C=CC(=O)[C@]6(C)[C@H]4CC[C@]23C)C1 | 2.82 | 1.53 | – | 1.95 | 1.47 | – | – | – |
| COc1ccc(-c2cc3ccccc3[nH]c2=O)cc1OC | > 100 | > 100 | > 100 | – | > 100 | > 100 | – | – |
| CCOC(=O)c1sc2c(C(=O)OCC)n3cc(C)cc(C)c3c2c1O | – | > 100 | > 100 | > 100 | > 100 | – | – | – |
| COc1cc(Cl)c(CC(=O)c2c[nH]c3ccccc23)cc1OC | – | – | – | – | – | – | > 100 µM | – |

| SMILES | TGI (XF 498 CNS) [µM] | TGI (DMS 273 small cell lung) [µM] | TGI (SNB-78 CNS) [µM] | TGI (DMS 114 small cell lung) [µM] | TGI (KM20L2 colon) [µM] | TGI (HOP-18 NSCLC) [µM] | TGI (MDA-N) | other results |
| --- | --- | --- | --- | --- | --- | --- | --- | --- |
| CCC1CCCCN1CC(C(C)=O)C(c1ccccc1)c1c(O)c2ccccc2oc1=O (stereo unspecified) | > 100 | > 100 | > 100 | > 100 | > 100 | – | – | TGI (RXF-631 renal): > 100 µM |
| CC(=O)OCC1OC(n2c(=O)[nH]c(=O)c3n[nH]nc32)C(OC(C)=O)C(OC(C)=O)C1OC(C)=O (stereo unspecified) | > 100 | > 100 | – | > 100 | > 100 | > 100 | – | – |
| Cc1ccc2oc(=O)c3c(O)c4cccc(OC5OC(C)C6O[C@@H](c7ccccc7)OC6C5OC5OC(C)C(O)C(O)C5O)c4c4oc(=O)c1c2c34 (stereo partly specified) | 2.05 | 1.09 | 5.23 | 3.16 | 4.08 | 19.4 | 1.72 µM | TGI (RXF-631 renal): 4.4 µM |
| O=c1c2ccccc2oc2ccccc12 (tested in a mixture with another compound) | – | > 100 | – | 5.08 | – | – | – | – |
| O=C1C(Cl)=C(Cl)C(=O)N1c1ccc(Cl)c(Cl)c1Cl | – | > 100 | > 100 | > 100 | > 100 | > 100 | – | TGI (RXF-631 renal): > 100 µM |
| O=C(O)c1c2c(cc3c(=O)c4ccccc4[nH]c13)CCCC2 | > 100 | > 100 | > 100 | – | > 100 | > 100 | – | TGI (RXF-631 renal): > 100 µM |
| O=c1[nH]c2ccccc2c(O)c1/C=N/C(=S)NC1CCCCC1 | – | – | – | – | – | – | > 100 µM | – |
| COC(=O)CC1(O)C=CC(=O)C=C1 | – | – | – | – | – | – | 20.9 µM | – |
| CCCCCCCC(=O)[O-].CCCCCCCC(=O)[O-].N.N.N.N.[Co+3].[O-][Cl+3]([O-])([O-])[O-] | – | – | > 100 | – | – | > 100 | – | GI50 (HOP-18 NSCLC): 54.8 µM; GI50 (SNB-78 CNS): > 100 µM |
| CCCCCCC(=O)C/C(CCC(=O)N(Cc1ccccc1)Cc1ccccc1)=N\NC(N)=O | > 100 | > 100 | > 100 | > 100 | > 100 | > 100 | – | TGI (RXF-631 renal): > 100 µM |
| CN1CCC(c2c(O)cc(O)c3c(=O)cc(-c4ccccc4Cl)oc23)C(O)C1 (stereo unspecified) | 0.584 | – | – | 0.393 | > 100 | > 100 | – | GI50 (KM20L2 colon): 0.262 µM |
| C1CSC[C@H]2COC[C@@H](CSCCS1)S2 | – | – | – | – | – | – | > 100 µM | – |
| COC(=O)/C(C#N)=C1\CCC(OC)N1C (stereo unspecified) | > 100 | > 100 | > 100 | > 100 | > 100 | > 100 | – | – |
| O=C1CC(C2(O)C(=O)Nc3ccc([N+](=O)[O-])cc32)c2ccccc21 (stereo unspecified) | – | 41.4 | > 100 | 23.9 | – | > 100 | – | TGI (RXF-631 renal): 31.8 µM |
| COc1cc2c(cc1OC)C(C(CBr)CBr)N(C1CCCC1)CC2 (stereo unspecified) | > 100 | > 100 | – | – | – | – | – | – |
| O=C(c1ccccc1)c1nnn(Cc2ccccc2Cn2nnc(C(=O)c3ccccc3)c2C(=O)c2ccccc2)c1C(=O)c1ccccc1 | – | > 100 | > 100 | > 100 | > 100 | > 100 | – | – |
| CC(C)C1(NC(=O)C2CC3c4cccc5[nH]cc(c45)CC3N(C)C2)OC2(O)C3CCCN3C(=O)C(Cc3ccccc3)N2C1=O (stereo unspecified) | – | – | – | – | – | – | > 100 µM | – |
| COC(=O)c1onc(C2OC(C)(C)OC2C(O)COC(c2ccccc2)(c2ccccc2)c2ccccc2)c1C(=O)OC (stereo unspecified) | – | – | – | – | – | – | > 100 µM | – |
| CCc1ccc2oc(=O)ccc2c1 | – | – | – | – | – | – | > 100 µM | – |
| CC(C)N(C(=O)C12C3C4C5(C(=O)O)C(C1C35I)C42C(=O)O)C(C)C (stereo unspecified) | – | > 100 | > 100 | > 100 | > 100 | – | – | TGI (RXF-631 renal): > 100 µM |

— PubChem BioAssay (NCI)
